Consider ten compounds from patent publication US9163063B2, “Peptides and nanoparticles for therapeutic and diagnostic applications” (Trustees of Dartmouth College, priority 2009, dated 2015).

Ends that are not written are not given here. Peptide text beside a SMILES is read from it. * marks the point of attachment. fluorescein = fluorescein group attached to the lysine side chain; Benzoyl(4-Br) = O=C(c1ccc(Br)cc1)*; Myristoyl = CCCCCCCCCCCCCC(=O)*; Bz = O=C(c1ccccc1)*

Data set [1] deals with MDA-MB-231-WT breast cancer cells. It is filed as cell-based. The note with it: 50-200 μM, 48 h-96 h (Example 6). The method, then: (§1) MDA231-W and AsPC1 cells were cultured in RPMI 1640 media supplemented with 10% fetal bovine serum (FBS), 5% L-Glutamine, and 1% antibiotics (penicillin-streptomycin purchased from Invitrogen, Carlsbad, Calif.). Cells were maintained at 37° C. in an atmosphere containing 95% air-5% CO2 (v/v). Cells were then incubated with different doses of GIPC inhibitor peptides (50-200 μM) for different time (48 h to 96 h). MDA-231 WT (4×10^4) and AsPC1 cells (2×10^4) were seeded in 24-well plates, cultured for 1 d in RPMI 1640 medium supplemented with 10% FBS, 5% L-Glutamine, and 1% antibiotics. Cells were then incubated with GIPC inhibitor peptides in a time dependent (48 h-96 h) and dose dependent manner (50-200 μM). After certain time of incubation, 1 μCi [^3H]-thymidine was added and proliferation assay performed as previously described. Experiments were repeated at least thrice and in triplicate.

For data set [2], the system named is AsPC1 cells. The data set is classed as cell-based, human. The note with it: 50-200 μM, 48 h-96 h (Example 6). Here is the method:
as §1

Another data set relates to MDA-MB-231-WT cells. Description: Apoptosis assay (annexin/PI). The note with it: 50-200 μM. The data set is classed as cell-based. The method, then:
(§2) MDA231-WT and AsPC1 ells were seeded into 6-well plates at a density of 4×10^5/2 ml of RPMI medium per well and grown overnight. Next day cells were treated with GIPC inhibitor peptides in a time dependent (48 h-96 h) and dose dependent manner (50-200 μM). After treatment with definite time, cells were extensively washed with PBS and tested with the Annexin V-FITC Apoptosis Detection Kit (Biovision, Cat. No. #K101-100) per the manufacturer's instructions.

Data set [3] deals with AsPC1 cells. The experiment in a line: Apoptosis assay (annexin/PI). It is filed as cell-based, human. The note with it: 50-200 μM. The method, then:
as §2

For data set [4], the system named is AsPC1 cells. Description: Cellular localization of fluorescein-tagged analogs (confocal). It is filed as cell-based, human. The source says: Furthermore, the cellular localization of both CR1023 and CR1166 was investigated in AsPC1 cells using their fluorescein-tagged analogs CR1171 and CR1173 (FIG. 24). CR1172, the fluorescein-tagged analog of CR1164 was used as a control. The green (for fluorescein) and blue (for DAPI) fluorescent microscopy images were collected for AsPC1 cells treated with peptides CR1171, CR1172 and CR1173 using a LSM 510 confocal laser scan microscope. The presence of green fluorescence in FIGS. 24d, -g, -j indicated the internalization of CR1171, CR1172 and CR1173. Untreated AsPC1 cells were devoid of the green fluorescent signal.

Data set [5] concerns MIAPaCa2 pancreatic cancer cells. Description: Subcutaneous MIAPaCa2 tumor, intratumoral peptide for 27 days. It is filed as in vivo, nude mice. The note with it: whole course of treatment. Here is the method: When the tumor reached about 5 mm-15 mm in diameter after subcutaneous transplantation of MIAPaCa2 cells (n=10 treatment, n=10 control) into the mouse right flank, mice were treated with 10 mM of peptide for 27 days dissolved in DMSO. The peptide was applied directly into the tumor. The control group was treated with phosphate buffered saline solution alone.
HE staining and immunostaining for Ki67 (n=6 treatment, n=7 control) was performed as described by the manufacturer. For evaluation the Zeiss Axioplan 2 microscope was used. Photos are made with Zeiss Axiocam. For photos 40× objectives were used. Statistical Analysis. Data are presented as means and differences in means with 95% confidence intervals for the differences. Tests for statistical differences were performed using t-tests and Mann-Whitney tests and Wilcoxon tests. For the in vivo experiments, at least 10 mice were used each group. This number was derived by power analysis to detect a 50% reduction in tumor size, with a beta error of 3%. Because the overall sample size was small and outcome variables could have a non-normal distribution, the non-parametric Mann-Whitney test was used to detect statistical significant differences in each group. P values less than 0.05 were considered to be significant. The significance of the tumor take rates was calculated by using a Wilcoxon-test. […]

Consider “My-SESPSASQ (Myristoyl-SESPSASQ) [CR2055]”, for which the “inhibition of cell proliferation” value (in data set [1]; in the data set on AsPC1 cells [2]) was “no effect” throughout. Besides, the induction of apoptosis result in the data set with MDA-MB-231-WT cells and with AsPC1 cells [3] was “no effect” throughout.
As to “My-SPSASK(4-Br-ben)SQ (Myristoyl-SPSASK(Benzoyl(4-Br))SQ) [CR2059]”, the “inhibition of cell proliferation” value (in data set [1]; in the data set on AsPC1 cells [2]) was “very little effect” in each case. Moreover, the induction of apoptosis entry in the data set on MDA-MB-231-WT cells and in the data set with AsPC1 cells [3] was “no effect” each time.
As for “My-K(FI)PSQSK(ben)SK(ben)A (Myristoyl-K(fluorescein)PSQSK(Bz)SK(Bz)A) [CR1172]”, in the data set with AsPC1 cells [4], the cellular localization result was “more dispersely localized” and the “internalization (green fluorescence)” value was “internalization”.
Regarding “My-PSQSSSK(4-Br-ben)A (Myristoyl-PSQSSSK(Benzoyl(4-Br))A) [CR1162]”, the “inhibition of cell proliferation” value (in data set [1]; with AsPC1 cells [2]) was “almost no or little effect” throughout.
With “My-K(FI)PSQSK(4-Br-ben)SK(4-Br-ben)A (Myristoyl-K(fluorescein)PSQSK(Benzoyl(4-Br))SK(Benzoyl(4-Br))A) [CR1173]”, in the data set on AsPC1 cells [4], the cellular localization result was “localized on the membrane” and the “internalization (green fluorescence)” value is “internalization”.
Turning to “My-K(FI)PSQSSSEA (Myristoyl-K(fluorescein)PSQSSSEA) [CR1171]”, in the data set on AsPC1 cells [4], the cellular localization result is reported as “more dispersely localized” and the “internalization (green fluorescence)” value was “internalization”.
“My-LLQGPSQSSSEA (Myristoyl-LLQGPSQSSSEA) [SEQ ID NO: 22]”: the “inhibition of cell proliferation” value (in data set [1]; in the data set on AsPC1 cells [2]) was “significant inhibitions” each time. Moreover, the induction of apoptosis entry in the data set on MDA-MB-231-WT cells and in the data set on AsPC1 cells [3] was “significant induction of apoptosis” each time.
As to “My-PSQSK(ben)SK(ben)A (Myristoyl-PSQSK(Bz)SK(Bz)A) [CR1164]”, the “inhibition of cell proliferation” value (in data set [1]; in the data set with AsPC1 cells [2]) was “almost no or little effect” each time. The induction of apoptosis entry in the data set with MDA-MB-231-WT cells and in the data set with AsPC1 cells [3] was “no effect” throughout.
For the compound “My-PSQSK(4-Br-ben)SEA (Myristoyl-PSQSK(Benzoyl(4-Br))SEA) [CR1170]”, the induction of apoptosis result with MDA-MB-231-WT cells and with AsPC1 cells [3] was “no effect” throughout.
As to `CCCCCCCCCCCCCC(=O)N1CCC[C@H]1C(=O)N[C@@H](CO)C(=O)N[C@@H](CCC(N)=O)C(=O)N[C@@H](CO)C(=O)N[C@@H](CO)C(=O)N[C@@H](CO)C(=O)N[C@@H](CCC(=O)O)C(=O)N[C@@H](C)C(=O)O` [PSQSSSEA, P-S-Q-S-S-S-E-A] (Myristoyl-PSQSSSEA-OH), the values for the toxicity during treatment result in data set [5] (listed as GIPC-PDZ-targeting peptide) and in data set [5] (listed as PDZ domain inhibitor) were “without showing toxicity” and “did not show any toxicity”, respectively.
